Measured values: PMC9516332 (Frontiers in Oncology, 2022)
Where two headings read alike, the source gives them in different places.

What was measured:
Experiment in all cases: Kinase panel profiling at 1 µmol/L (MSA or IMAP), percentage inhibition
Format in all cases: biochemical
[1] = molecular target: panel of 255 wild-type kinases (Homo sapiens, UniProt P49840); details: read-out: %-inhibition at 1 µmol/L, GSK3α
[2] = molecular target: panel of 255 wild-type kinases (Homo sapiens, UniProt P22612); details: read-out: %-inhibition at 1 µmol/L, PKACγ
[3] = molecular target: panel of 255 wild-type kinases (Homo sapiens, UniProt Q16539); details: read-out: %-inhibition, p38α
[4] = molecular target: panel of 255 wild-type kinases (Homo sapiens, UniProt Q8N568); details: read-out: %-inhibition at 1 µmol/L, DCAMKL2
[5] = molecular target: panel of 255 wild-type kinases (Homo sapiens, UniProt P06241); details: read-out: %-inhibition at 1 µmol/L, FYN [isoform a]
[6] = molecular target: panel of 255 wild-type kinases (Homo sapiens, UniProt Q05397); details: read-out: %-inhibition at 1 µmol/L, FAK
[7] = molecular target: panel of 255 wild-type kinases (Homo sapiens, UniProt P06493); details: read-out: %-inhibition CDC2/CycB1
[8] = molecular target: panel of 255 wild-type kinases (Homo sapiens, UniProt Q9Y3S1); details: read-out: %-inhibition at 1 µmol/L, WNK2
[9] = molecular target: panel of 255 wild-type kinases (Homo sapiens, UniProt P22607); details: read-out: %-inhibition at 1 µmol/L, FGFR3
[10] = molecular target: panel of 255 wild-type kinases (Homo sapiens, UniProt Q07912); details: read-out: %-inhibition ACK
[11] = molecular target: T1, panel of 255 wild-type kinases (Homo sapiens, UniProt O43781); details: read-out: %-inhibition at 1 µmol/L, DYRK3
T1 sequence (O43781 1-588): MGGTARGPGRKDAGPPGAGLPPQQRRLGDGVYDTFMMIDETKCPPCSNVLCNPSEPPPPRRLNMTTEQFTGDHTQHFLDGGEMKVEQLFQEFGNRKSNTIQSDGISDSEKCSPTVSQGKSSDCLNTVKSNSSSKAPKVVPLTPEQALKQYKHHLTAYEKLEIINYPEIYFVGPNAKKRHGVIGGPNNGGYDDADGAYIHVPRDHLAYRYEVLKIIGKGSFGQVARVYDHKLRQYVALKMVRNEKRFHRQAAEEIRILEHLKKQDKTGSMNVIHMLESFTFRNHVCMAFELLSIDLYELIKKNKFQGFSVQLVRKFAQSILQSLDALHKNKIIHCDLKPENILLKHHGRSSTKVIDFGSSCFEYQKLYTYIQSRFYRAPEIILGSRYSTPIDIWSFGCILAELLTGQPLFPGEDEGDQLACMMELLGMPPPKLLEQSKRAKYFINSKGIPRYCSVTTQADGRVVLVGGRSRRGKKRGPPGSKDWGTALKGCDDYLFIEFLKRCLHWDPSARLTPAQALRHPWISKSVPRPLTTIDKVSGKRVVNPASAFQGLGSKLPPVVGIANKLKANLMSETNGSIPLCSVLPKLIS

[12] = molecular target: panel of 255 wild-type kinases (Homo sapiens, UniProt P11309); details: read-out: %-inhibition at 1 µmol/L, PIM1
[13] = molecular target: panel of 255 wild-type kinases (Homo sapiens, UniProt Q04912); details: read-out: %-inhibition at 1 µmol/L, RON
[14] = molecular target: panel of 255 wild-type kinases (Homo sapiens, UniProt P49761); details: read-out: %-inhibition at 1 µmol/L, CLK3
[15] = molecular target: panel of 255 wild-type kinases (Homo sapiens, UniProt P54756); details: read-out: %-inhibition at 1 µmol/L, EPHA5
[16] = molecular target: panel of 255 wild-type kinases (Homo sapiens, UniProt Q9NYY3); details: read-out: %-inhibition at 1 µmol/L, PLK2
[17] = molecular target: panel of 255 wild-type kinases (Homo sapiens, UniProt P51812); details: read-out: %-inhibition at 1 µmol/L, RSK2
[18] = molecular target: T2, panel of 255 wild-type kinases (Homo sapiens, UniProt Q96BR1); details: read-out: %-inhibition at 1 µmol/L, SGK3
T2 sequence (Q96BR1 1-496): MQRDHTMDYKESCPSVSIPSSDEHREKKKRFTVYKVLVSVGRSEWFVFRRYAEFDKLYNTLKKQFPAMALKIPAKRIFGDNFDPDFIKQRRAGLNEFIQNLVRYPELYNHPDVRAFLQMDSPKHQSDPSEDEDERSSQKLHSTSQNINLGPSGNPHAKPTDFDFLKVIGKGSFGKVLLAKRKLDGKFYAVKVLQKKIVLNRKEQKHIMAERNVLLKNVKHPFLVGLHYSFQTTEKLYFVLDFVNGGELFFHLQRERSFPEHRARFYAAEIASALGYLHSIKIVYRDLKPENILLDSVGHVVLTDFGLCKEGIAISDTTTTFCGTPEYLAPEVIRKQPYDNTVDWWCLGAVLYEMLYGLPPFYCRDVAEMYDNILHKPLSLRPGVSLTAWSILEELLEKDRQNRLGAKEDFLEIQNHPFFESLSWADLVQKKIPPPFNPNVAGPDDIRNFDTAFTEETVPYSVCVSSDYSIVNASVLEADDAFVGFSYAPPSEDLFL

[19] = kinase GSK3α, 1 µmol/L single concentration
[20] = kinase PKACγ, 1 µmol/L single concentration
[21] = p38α, 1 µmol/L single concentration
[22] = kinase DCAMKL2, 1 µmol/L single concentration
[23] = kinase FYN [isoform a], 1 µmol/L single concentration
[24] = kinase FAK, 1 µmol/L single concentration
[25] = CDC2/CycB1 kinase assay, 1 µmol/L single concentration
[26] = kinase WNK2, 1 µmol/L single concentration
[27] = kinase FGFR3, 1 µmol/L single concentration
[28] = ACK kinase assay, 1 µmol/L single concentration
[29] = kinase DYRK3, 1 µmol/L single concentration
[30] = kinase PIM1, 1 µmol/L single concentration
[31] = kinase RON, 1 µmol/L single concentration
[32] = kinase CLK3, 1 µmol/L single concentration
[33] = kinase EPHA5, 1 µmol/L single concentration
[34] = kinase PLK2, 1 µmol/L single concentration
[35] = kinase RSK2, 1 µmol/L single concentration
[36] = kinase SGK3, 1 µmol/L single concentration

Row | inhibition at 1 µM [6, 24] | inhibition at 1 µM [10, 28] | Compound | inhibition at 1 µM [1, 19] | inhibition at 1 µM [2, 20] | inhibition at 1 µM [3, 21] | inhibition at 1 µM [4, 22] | inhibition at 1 µM [5, 23] | inhibition at 1 µM [7, 25] | inhibition at 1 µM [8, 26] | inhibition at 1 µM [9, 27] | inhibition at 1 µM [11, 29] | inhibition at 1 µM [12, 30] | inhibition at 1 µM [13, 31] | inhibition at 1 µM [14, 32] | inhibition at 1 µM [15, 33] | inhibition at 1 µM [16, 34] | inhibition at 1 µM [17, 35] | inhibition at 1 µM [18, 36] | also measured
1 | 3.69% | 5.5% | Cc1nc(NC(=O)N2CCC[C@H]2C(N)=O)sc1-c1ccnc(C(C)(C)C(F)(F)F)c1 [alpelisib] | -2.64% | -7.38% | 2.59% | 6.52% | 1.52% | -3.48% | -3.36% | 3.39% | 10% | 4% | 7% | 22% | 0.272% | 10% | -1.78% | 1.47% | 
2 | -1.33% | -4% | Cn1cnc2c(F)c(Nc3ccc(Br)cc3F)c(C(=O)NOCCO)cc21 [binimetinib] | -2.8% | -3% | -8% | -13% | 3.76% | 2.36% | -2.48% | 1.4% | -3.3% | -16% | -3.72% | 0.514% | -2.36% | -5% | 0.103% | -0.74% | 
3 |  |  | CNC(=O)c1ccc(-c2cnc3ncc(Cc4ccc5ncccc5c4)n3n2)cc1F [capmatinib] |  |  |  |  |  |  |  |  |  |  |  |  |  |  |  |  | inhibition at 1 µM [1]: -0.492%; inhibition at 1 µM [2]: -1.43%; inhibition at 1 µM [3]: 3.37%; inhibition at 1 µM [4]: -1.61%; inhibition at 1 µM [5]: -2%; inhibition at 1 µM [6]: -6%; inhibition at 1 µM [7]: 2%; inhibition at 1 µM [8]: -2.3%; inhibition at 1 µM [9]: 2%; inhibition at 1 µM [10]: 1%; inhibition at 1 µM [11]: 4.5%; inhibition at 1 µM [12]: -9%; inhibition at 1 µM [13]: 13%; inhibition at 1 µM [14]: 8%; inhibition at 1 µM [15]: -13%; inhibition at 1 µM [16]: 7%; inhibition at 1 µM [17]: -3%; inhibition at 1 µM [18]: -2.49%
4 | -0.575% | 32% | COc1cc2ncnc(Nc3ccc(F)c(Cl)c3)c2cc1NC(=O)/C=C/CN1CCCCC1 [dacomitinib] | 1.45% | 12% | 39% | 1.42% | 32% | -6% | -4% | 26% | 18% | 32% | 5% | 2.5% | 34% | 5% | 8% | -20% | 
5 |  |  | CN1CCN(c2ccc(C(=O)Nc3n[nH]c4ccc(Cc5cc(F)cc(F)c5)cc34)c(NC3CCOCC3)c2)CC1 [entrectinib] | -0.424% | -4.58% | 7% | 16% | 96% | 3.63% | 2.24% | 90% | -3% | -6% | 33% | 3.46% | 53% | 14% |  | 0.413% | 
6 |  |  | C[C@H]1Oc2cc(cnc2N)-c2c(nn(C)c2C#N)CN(C)C(=O)c2ccc(F)cc21 [lorlatinib] | -2.36% | -6% | 6% | 74% | 15% | 3.16% | -0.739% | -0.405% | -3.41% | 8% | 11% | 0.641% | 38% | 10% | -0.881% | 7.56% | 

Row | Compound | inhibition at 1 µM [6, 24] | inhibition at 1 µM [10, 28] | inhibition at 1 µM [1, 19] | inhibition at 1 µM [2, 20] | inhibition at 1 µM [3, 21] | inhibition at 1 µM [4, 22] | inhibition at 1 µM [5, 23] | inhibition at 1 µM [7, 25] | inhibition at 1 µM [8, 26] | inhibition at 1 µM [9, 27] | inhibition at 1 µM [11, 29] | inhibition at 1 µM [12, 30] | inhibition at 1 µM [13, 31] | inhibition at 1 µM [14, 32] | inhibition at 1 µM [15, 33] | inhibition at 1 µM [16, 34] | inhibition at 1 µM [17, 35] | inhibition at 1 µM [18, 36] | also measured
7 | Cn1cc(-c2cc3c(N4CCN(c5ncc([C@@](C)(N)c6ccc(F)cc6)cn5)CC4)ncnn3c2)cn1 [avapritinib] | -2.5% | 73% | 3% | 4.43% | 0.843% | 3.65% | 57% | 3% | 0.928% | 41% | 49% | 24% | 48% | 3.76% | 41% | 7% | 2.57% | -2% | 
8 | C=CC(=O)N1CCC([C@@H]2CCNc3c(C(N)=O)c(-c4ccc(Oc5ccccc5)cc4)nn32)CC1 [zanubrutinib] | 13% | 11% | -7% | -4.62% | -1.11% | 0.323% |  | -7% | 2% | 4.61% | -6% | -11% | 5% | -3.73% | 0.0392% | 0.329% | -6% | -3.7% | 
